Results: patent US20130116219A1, “ANTIMICROBIAL CARBOLINE COMPOUNDS” (ALCON RESEARCH, LTD., priority 2011, published 2013)
In brackets after ≈: the same amount, converted by molar mass.

Columns and labels:
Ad5 [1] = assay: Ad5 genome replication assay (cell-based QPCR) in A549 cells; details: Human adenovirus sp., A549, 72 h, read-out: Ad5 qPCR EC50 (μM)
Procedure: Compounds of the present invention were tested for potency against Ad5 in an Ad5 genome replication assay, a cell-based QPCR assay of Ad5 genome replication in A549 cells, a human lung carcinoma cell line. Serotype of human Ad5, used in this replication assay can also replicate in a NZW rabbit model of adenoviral ocular keratitis.
EC50 values (μM) for inhibition of adenoviral replication were determined by QPCR. Briefly, 10,000 cultured A549 cells were inoculated with 25,000 pfu/well for 3 hrs in 2% FBS F12-K A549 culture media. Following inoculation, A549 cells were treated with log unit dilutions of compound of Formula I (˜10 μM thru˜10 pM) in 10% FBS F12-K culture media with 0.3% DMSO for an additional 3 days. Cell viability was assessed with Alamar Blue (10 μl/well for 2 hrs; fluorescence Ex353; Em595 nm). Plates were washed 3 times with 125 μl PBS, cell lysates were prepared for QPCR analysis using Cells to SNP kit (Life Technologies). Ad5 genome levels per cell were determined with RNaseP and Ad5 hexon Taqman Assays (Life Technologies). EC50, the concentration that inhibited Ad5 genome replication formation by 50%, was estimated from plots of Ad5 genomes/cell vs. compound concentration.

Ad5 [2] = assay: Plaque reduction assay in A549 cells, Ad5; format: cell-based; details: unidentified adenovirus, A549, 168 h, read-out: Adenovirus Serotype EC50 (μg/mL) Ad5
Procedure: (§1) Compounds of the present invention were tested for potency against AdV serotypes Ad3, Ad4, Ad5, Ad7a, Ad8, Ad19, and Ad37 in a plaque reduction assay, a cell-based assay of AdV replication. Ad8, Ad19, and Ad37 are the serotypes most commonly associated with epidemic keratoconjunctivitis (EKC). Ad3, Ad4, and Ad7a are serotypes most commonly associated with follicular conjunctivitis and serotype Ad5 can replicate in the NZW rabbit model of adenoviral ocular keratitis. Ad3, Ad4, Ad5, Ad7a, Ad8, and Ad19 were recovered at the Charles T. Campbell Ophthalmic Microbiology Laboratory from patients presenting with typical adenoviral ocular disease. No clinical isolates of Ad37 were available, so the ATCC (American Type Culture Collection, Manassas, Va.) reference strain of Ad37 was used.
(§2) EC50 values (μg/ml) for inhibition of adenoviral replication were determined by plaque reduction assay. Briefly, cultured A549 cells were inoculated with approximately 100 pfu of the indicated adenovirus serotype. Inoculated cells were overlaid with methylcellulose medium containing Compound 2 at 100, 10, 1, 0.1, 0.01, and 0.001 μg/ml, and incubated at 37° C./5% CO2 for approximately 7 d. Plates were stained with gentian violet, and plaques were counted in a 25× dissecting microscope. IC50, the concentration that inhibited plaque formation by 50%, was estimated from plots of mean plaque count vs. concentration.

Ad19 = assay: Plaque reduction assay in A549 cells, Ad19; format: cell-based; details: unidentified adenovirus, 168 h, approximately 7 d, read-out: Adenovirus Serotype EC50 (μg/mL) Ad19
Procedure: as §1, §2

Ad37 = assay: Plaque reduction assay in A549 cells, Ad37; format: cell-based; details: unidentified adenovirus, 168 h, approximately 7 d, ATCC reference strain, read-out: Adenovirus Serotype EC50 (μg/mL) Ad37
Procedure: as §1, §2

Ad7a = assay: Plaque reduction assay in A549 cells, Ad7a; format: cell-based; details: unidentified adenovirus, 168 h, approximately 7 d, read-out: Adenovirus Serotype EC50 (μg/mL) Ad7a
Procedure: as §1, §2

Ad4 = assay: Plaque reduction assay in A549 cells, Ad4; format: cell-based; details: unidentified adenovirus, 168 h, approximately 7 d, read-out: Adenovirus Serotype EC50 (μg/mL) Ad4
Procedure: as §1, §2

Ad8 = assay: Plaque reduction assay in A549 cells, Ad8; format: cell-based; details: unidentified adenovirus, A549, 168 h, read-out: Adenovirus Serotype EC50 (μg/mL) Ad8
Procedure: as §1, §2

Ad3 = assay: Plaque reduction assay in A549 cells, Ad3; format: cell-based; details: unidentified adenovirus, 168 h, approximately 7 d, read-out: Adenovirus Serotype EC50 (μg/mL) Ad3
Procedure: as §1, §2

Structure (SMILES)	EC50 (Ad5 [1]) [µM]	other results
CC(C)CC1c2[nH]c3ccc(Cl)cc3c2CCN1C(=O)CNCc1ccno1 (stereo not drawn) [Compound 90]	> 1	–
CC(C)C[C@H]1c2[nH]c3ccc(Cl)cc3c2CCN1C(=O)CNC1CC1 [Compound 91, (S)-1-(6-chloro-1-isobutyl-3,4-dihydro-1H-pyrido[3,4-b]indol-2(9H)-yl)-2-(cyclopropylamino)ethanone]	< 0.1	EC50 (Ad5 [2]): < 0.1 µg/mL; EC50 (Ad19): 0.1 to 1 µg/mL (≈ 0.278 to 2.78 µM); EC50 (Ad37): 0.1 to 1 µg/mL (≈ 0.278 to 2.78 µM); EC50 (Ad7a): 0.1 to 1 µg/mL (≈ 0.278 to 2.78 µM); EC50 (Ad4): 0.1 to 1 µg/mL (≈ 0.278 to 2.78 µM); EC50 (Ad8): 0.1 to 1 µg/mL (≈ 0.278 to 2.78 µM); EC50 (Ad3): 0.1 to 1 µg/mL (≈ 0.278 to 2.78 µM)
CC(C)C[C@H]1c2[nH]c3ccc(Cl)cc3c2CCN1C(=O)CNC1CCC(F)(F)CC1 [Compound 94, (S)-1-(6-chloro-1-isobutyl-3,4-dihydro-1H-pyrido[3,4-b]indol-2(9H)-yl)-2-((4,4-difluorocyclohexyl)amino)ethanone]	< 0.1	–
CC(C)CC1c2[nH]c3ccc(Cl)cc3c2CCN1C1CC1 (stereo not drawn) [Compound 95]	< 0.1	–
CC(C)CC1c2[nH]c3ccc(Cl)cc3c2CCN1CC1CC1 (stereo not drawn) [Compound 96]	0.1 to 1	–
CC(C)C[C@H]1c2[nH]c3ccc(Br)cc3c2CCN1C(=O)CNC1CC1 [Compound 98, (S)-1-(6-bromo-1-isobutyl-3,4-dihydro-1H-pyrido[3,4-b]indol-2(9H)-yl)-2-(cyclopropylamino)ethanone]	< 0.1	–
CC(C)C[C@H]1c2[nH]c3ccc(Cl)cc3c2CCN1C(=O)CC1CCN(CC(F)F)CC1 [Compound 100]	< 0.1	–
CC(C)CC1c2[nH]c3ccc(Cl)cc3c2CCN1CCN1CC[C@H](F)C1 (stereo partly drawn) [Compound 101]	> 1	–
CC(C)CC1c2[nH]c3ccc(Cl)cc3c2CCN1C(=O)C1(F)CNC1 (stereo not drawn) [Compound 102]	0.1 to 1	–
CC(C)CC1c2[nH]c3ccc(Cl)cc3c2CCN1C(=O)C1(F)CN(CC(C)C)C1 (stereo not drawn) [Compound 103, (6-chloro-1-isobutyl-3,4-dihydro-1H-pyrido[3,4-b]indol-2(9H)-yl)(3-fluoro-1-isobutylazetidin-3-yl)methanone]	< 0.1	–
CC(C)C[C@H]1c2[nH]c3ccc(Cl)cc3c2CCN1C(=O)CNC1CC(F)(F)C1 [Compound 104, (S)-1-(6-chloro-1-isobutyl-3,4-dihydro-1H-pyrido[3,4-b]indol-2(9H)-yl)-2-((3,3-difluorocyclobutyl)amino)ethanone]	< 0.1	–
CC(C)C[C@H]1c2[nH]c3ccc(Br)cc3c2CCN1C(=O)CCN1CC[C@H](F)C1 [Compound 105]	0.1 to 1	–
CCCCN1CC(F)(C(=O)N2CCc3c([nH]c4ccc(Cl)cc34)C2CC(C)C)C1 (stereo not drawn) [Compound 106]	< 0.1	–
CC(C)CC1c2[nH]c3ccc(Cl)cc3c2CCN1C(=O)C1CN(CC2CC2(F)F)C1 (stereo not drawn) [Compound 107]	> 1	–
CC(C)C[C@H]1c2[nH]c3ccc(Cl)cc3c2CCN1C(=O)CNCCC(F)(F)F [Compound 108, (S)-1-(6-chloro-1-isobutyl-3,4-dihydro-1H-pyrido[3,4-b]indol-2(9H)-yl)-2-(3,3,3-trifluoropropylamino)ethanone]	< 0.1	–
CC(C)CC1c2[nH]c3ccc(Cl)cc3c2CCN1CCCc1ccccc1 (stereo not drawn) [Compound 109]	0.1 to 1	–
CC(C)C[C@H]1c2[nH]c3ccc(Cl)cc3c2CCN1CCN1CCC(F)(F)CC1 [Compound 110, (S)-6-chloro-2-(2-(4,4-difluoropiperidin-1-yl)ethyl)-1-isobutyl-2,3,4,9-tetrahydro-1H-pyrido[3,4-b]indole]	0.1 to 1	–
